Assay results published in ChEMBL document CHEMBL4373747 (ACS Med Chem Lett, 2020).

Assays:
[1] = Stability in ICR/CD1 mouse hepatocytes assessed as half life at 1 uM measured upto 120 mins by LCMS analysis; type: ADME, cell-based, Hepatocyte; conditions: 2 h
Histone deacetylase 2 = Histone deacetylase 2 (Homo sapiens, UniProt Q92769); assay: Inhibition of recombinant full length human HDAC2 expressed in baculovirus infected Sf9 cells using FAM-RHKK-Ac as substrate incubated for 17 hrs by electrophoretic mobility shift assay
Histone deacetylase 7 = biological target: T1, Histone deacetylase 7 (Homo sapiens, UniProt Q8WUI4); assay: Inhibition of recombinant full length human HDAC7 expressed in baculovirus infected Sf9 cells using FAM-RHKK-TFAc as substrate incubated for 3 hrs by electrophoretic mobility shift assay
T1 sequence (Q8WUI4 whole entry): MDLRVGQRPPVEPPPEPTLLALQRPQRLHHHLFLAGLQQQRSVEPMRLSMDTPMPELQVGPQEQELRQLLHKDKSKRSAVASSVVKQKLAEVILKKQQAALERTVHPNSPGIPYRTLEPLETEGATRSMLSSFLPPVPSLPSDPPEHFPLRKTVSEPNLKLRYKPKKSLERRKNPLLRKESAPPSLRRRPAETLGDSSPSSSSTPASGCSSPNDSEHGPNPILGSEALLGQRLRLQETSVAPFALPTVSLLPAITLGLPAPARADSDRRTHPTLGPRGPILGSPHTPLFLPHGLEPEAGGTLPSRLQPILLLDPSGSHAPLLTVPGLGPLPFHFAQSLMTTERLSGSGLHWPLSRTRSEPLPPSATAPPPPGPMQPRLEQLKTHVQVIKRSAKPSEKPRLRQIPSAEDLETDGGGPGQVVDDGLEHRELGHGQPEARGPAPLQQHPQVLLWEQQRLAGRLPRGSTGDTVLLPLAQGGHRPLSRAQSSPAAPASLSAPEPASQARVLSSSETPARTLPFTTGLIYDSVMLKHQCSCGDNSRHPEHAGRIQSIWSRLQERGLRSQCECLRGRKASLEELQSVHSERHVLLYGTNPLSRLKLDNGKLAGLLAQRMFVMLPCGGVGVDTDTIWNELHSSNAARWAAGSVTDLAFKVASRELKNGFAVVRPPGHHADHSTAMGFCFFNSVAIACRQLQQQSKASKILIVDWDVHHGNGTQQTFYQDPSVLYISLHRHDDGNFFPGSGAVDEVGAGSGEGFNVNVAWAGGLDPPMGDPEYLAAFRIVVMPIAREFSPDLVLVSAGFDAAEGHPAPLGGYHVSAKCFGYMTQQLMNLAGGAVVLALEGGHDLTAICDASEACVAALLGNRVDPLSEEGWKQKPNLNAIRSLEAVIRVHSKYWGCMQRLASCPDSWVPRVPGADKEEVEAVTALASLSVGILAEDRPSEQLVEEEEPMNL

[2] = Efflux ratio of apparent permeability in human Caco2 cells incubated for 2 hrs by LC/MS analysis; type: ADME, cell-based, Caco-2; conditions: Caco-2
MV4-11 [3] = assay: Induction of apoptosis in human MV4-11 cells assessed as early apoptotic cells at 4 uM incubated for 18 hrs by annexin V FITC and PI based flow cytometry (reference value: 19.46 to 22.17 %); type: functional
Histone deacetylase 9 = Histone deacetylase 9 (Homo sapiens, UniProt Q9UKV0); assay: Inhibition of recombinant human HDAC9 (604-1066 residues) expressed in baculovirus infected Sf9 cells using FAM-RHKK-TFAc as substrate incubated for 3 hrs by electrophoretic mobility shift assay
MV4-11 [4] = assay: Induction of apoptosis in human MV4-11 cells assessed as late apoptotic cells at 2 uM incubated for 18 hrs by annexin V FITC and PI based flow cytometry (reference value: 9.2 to 9.63 %); type: functional
[5] = Cmax in NSG mouse; type: ADME; conditions: in vivo
MV4-11 [6] = assay: Induction of apoptosis in human MV4-11 cells assessed as late apoptotic cells at 4 uM incubated for 18 hrs by annexin V FITC and PI based flow cytometry (reference value: 9.2 to 9.63 %); type: functional
[7] = Stability in CD-1 mouse hepatocytes assessed as compound remaining at 1 uM measured up to 6 hrs by LCMS analysis; type: ADME, cell-based, Hepatocyte; conditions: mouse, 6 h, 1 µM
MV4-11 [8] = assay: Induction of apoptosis in human MV4-11 cells assessed as early apoptotic cells at 0.5 uM incubated for 18 hrs by annexin V FITC and PI based flow cytometry (reference value: 19.46 to 22.17 %); type: functional
MV4-11 [9] = assay: Induction of apoptosis in human MV4-11 cells assessed as late apoptotic cells incubated for 18 hrs by annexin V FITC and PI based flow cytometry; type: functional, cell-based

Chain of Histone deacetylase 2 (Q92769 whole entry): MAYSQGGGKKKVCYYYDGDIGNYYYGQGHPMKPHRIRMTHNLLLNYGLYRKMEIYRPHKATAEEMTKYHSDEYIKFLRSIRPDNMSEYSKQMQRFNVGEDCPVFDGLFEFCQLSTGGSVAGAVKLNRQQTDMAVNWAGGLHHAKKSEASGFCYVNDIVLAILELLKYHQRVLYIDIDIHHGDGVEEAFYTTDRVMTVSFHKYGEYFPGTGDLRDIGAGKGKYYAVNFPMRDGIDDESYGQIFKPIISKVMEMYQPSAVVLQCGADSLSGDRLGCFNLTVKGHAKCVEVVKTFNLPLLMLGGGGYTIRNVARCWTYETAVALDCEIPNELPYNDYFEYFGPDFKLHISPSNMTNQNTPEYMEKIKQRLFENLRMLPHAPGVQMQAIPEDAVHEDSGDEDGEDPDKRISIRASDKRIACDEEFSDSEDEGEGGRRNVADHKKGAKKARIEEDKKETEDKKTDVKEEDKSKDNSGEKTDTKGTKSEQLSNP
Chain of Histone deacetylase 9 (Q9UKV0 whole entry, the tested form may be a part): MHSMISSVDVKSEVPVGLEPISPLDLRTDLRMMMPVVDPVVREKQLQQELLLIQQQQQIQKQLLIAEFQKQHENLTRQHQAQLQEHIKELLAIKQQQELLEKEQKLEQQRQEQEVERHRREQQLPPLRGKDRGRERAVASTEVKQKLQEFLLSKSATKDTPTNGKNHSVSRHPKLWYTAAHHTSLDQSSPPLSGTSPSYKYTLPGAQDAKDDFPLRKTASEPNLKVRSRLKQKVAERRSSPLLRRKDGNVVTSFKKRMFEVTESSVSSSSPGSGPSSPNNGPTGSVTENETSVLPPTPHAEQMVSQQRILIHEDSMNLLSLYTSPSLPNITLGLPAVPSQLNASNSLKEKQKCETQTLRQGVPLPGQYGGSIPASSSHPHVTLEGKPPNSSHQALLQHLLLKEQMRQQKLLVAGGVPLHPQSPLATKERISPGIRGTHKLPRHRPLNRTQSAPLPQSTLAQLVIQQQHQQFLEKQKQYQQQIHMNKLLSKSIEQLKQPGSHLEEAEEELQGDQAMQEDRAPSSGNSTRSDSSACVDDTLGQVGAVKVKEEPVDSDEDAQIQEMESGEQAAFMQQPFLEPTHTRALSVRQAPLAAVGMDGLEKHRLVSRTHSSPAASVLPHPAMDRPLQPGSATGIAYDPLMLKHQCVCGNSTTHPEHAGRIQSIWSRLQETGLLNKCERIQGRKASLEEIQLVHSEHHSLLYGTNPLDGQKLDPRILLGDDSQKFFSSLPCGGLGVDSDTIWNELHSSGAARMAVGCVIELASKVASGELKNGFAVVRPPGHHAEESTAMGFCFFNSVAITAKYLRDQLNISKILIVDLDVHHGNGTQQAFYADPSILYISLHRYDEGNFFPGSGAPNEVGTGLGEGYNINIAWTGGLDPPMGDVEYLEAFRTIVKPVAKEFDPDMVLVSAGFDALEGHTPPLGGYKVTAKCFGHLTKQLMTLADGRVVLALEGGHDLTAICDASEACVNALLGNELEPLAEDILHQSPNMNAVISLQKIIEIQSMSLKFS

t1/2 [1]: 28.3 min
IC50 (Histone deacetylase 2): > 1 µM
IC50 (Histone deacetylase 7): > 1 µM
efflux ratio at 2 h [2]: 0.64
IC50 (Histone deacetylase 9): > 1 µM
Cmax [5]: 10.7 µM
Stability [7]: 20%
Structure (SMILES): CC(C)(C)c1ccc(C(=O)Nc2ccc(C(=O)NO)cc2)cc1
Activity (MV4-11 [3]): 32.14%
Activity (MV4-11 [4]): 30.97%
Activity (MV4-11 [6]): 38.48%
Activity (MV4-11 [8]): 20.69%
Activity (MV4-11 [9]): Dose-dependent effect
